Reference: patent publication US9593122B2, “Substituted pyrazolylpyrazole derivative and use of same as herbicide” (KYOYU AGRI CO., LTD., priority 2013, dated 2017)

Legend:
Assay in all cases: Paddy herbicidal activity test
Format in all cases: in vivo
Monochoria vaginalis = details: irrigated paddy pot, 30 days
Protocol: (§1) Rice paddy soil was filled into a 1/10000 are pot followed by the addition of suitable amounts of water and chemical fertilizer, kneading, seeding with Echinochloa crus-galli, Monochoria vaginalis and Scirpus juncoides and maintaining in an irrigated state at a water depth of 3 cm.
(§2) Wettable powder of Target Compound (I) shown in Table 1 prepared in compliance with the preparation examples were diluted with a suitable amount of water, rice plants in the 2.0 leaf stage were transplanted during 3.5 leaf stage of Echinochloa crus-galli, and treated by dropping in chemical in the prescribed amount per are using a pipette.
(§3) After treating for 30 days in a glass greenhouse at an average atmospheric temperature of 30° C., the herbicidal efficacy thereof was investigated.
(§4) Evaluation of herbicidal efficacy was carried out by comparing growth inhibition rate (%) with an untreated group, while evaluation of phytotoxicity was carried out by comparing growth inhibition rate (%) with the state of a complete eradication group, and were evaluated at 11 levels indicated below.

Echinochloa crus-galli = details: irrigated paddy pot, treated at 3.5 leaf stage of Echinochloa crus-galli, 30 days
Protocol: as §1, §2, §3, §4

Scirpus juncoides = details: irrigated paddy pot, 30 days
Protocol: as §1, §2, §3, §4

## N#Cc1cnn(-c2nn3c(c2Cl)CCCC3)c1NC/C=C\Cl [Compound 7]
Monochoria vaginalis; 1g a.i./10a
  Monochoria vaginalis herbicidal efficacy (growth inhibition level): 9 (9: 90% to less than 100%)
Monochoria vaginalis; 5g a.i./10a
  Monochoria vaginalis herbicidal efficacy (growth inhibition level): 9 (9: 90% to less than 100%)
Echinochloa crus-galli; 1g a.i./10a
  Echinochloa crus-galli herbicidal efficacy (growth inhibition level): 9 (9: 90% to less than 100%)
Echinochloa crus-galli; 5g a.i./10a
  Echinochloa crus-galli herbicidal efficacy (growth inhibition level): 9 (9: 90% to less than 100%)
Scirpus juncoides; 1g a.i./10a
  Scirpus juncoides herbicidal efficacy (growth inhibition level): 7 (7: 70% to less than 80%)
Scirpus juncoides; 5g a.i./10a
  Scirpus juncoides herbicidal efficacy (growth inhibition level): 8 (8: 80% to less than 90%)

## N#Cc1cnn(-c2nn3c(c2Br)CCCC3)c1NC/C=C\Cl [Compound 45]
Monochoria vaginalis; 1g a.i./10a
  Monochoria vaginalis herbicidal efficacy (growth inhibition level): 9 (9: 90% to less than 100%)
Monochoria vaginalis; 5g a.i./10a
  Monochoria vaginalis herbicidal efficacy (growth inhibition level): 9 (9: 90% to less than 100%)
Echinochloa crus-galli; 1g a.i./10a
  Echinochloa crus-galli herbicidal efficacy (growth inhibition level): 9 (9: 90% to less than 100%)
Echinochloa crus-galli; 5g a.i./10a
  Echinochloa crus-galli herbicidal efficacy (growth inhibition level): 9 (9: 90% to less than 100%)
Scirpus juncoides; 1g a.i./10a
  Scirpus juncoides herbicidal efficacy (growth inhibition level): 9 (9: 90% to less than 100%)
Scirpus juncoides; 5g a.i./10a
  Scirpus juncoides herbicidal efficacy (growth inhibition level): 9 (9: 90% to less than 100%)

## N#Cc1cnn(-c2nn3c(c2Cl)CCCC3)c1NCC(Cl)=CCl (mixture of isomers) [Compound 11]
Monochoria vaginalis; 1g a.i./10a
  Monochoria vaginalis herbicidal efficacy (growth inhibition level): 8 (8: 80% to less than 90%)
Monochoria vaginalis; 5g a.i./10a
  Monochoria vaginalis herbicidal efficacy (growth inhibition level): 9 (9: 90% to less than 100%)
Echinochloa crus-galli; 1g a.i./10a
  Echinochloa crus-galli herbicidal efficacy (growth inhibition level): 8 (8: 80% to less than 90%)
Echinochloa crus-galli; 5g a.i./10a
  Echinochloa crus-galli herbicidal efficacy (growth inhibition level): 9 (9: 90% to less than 100%)
Scirpus juncoides; 1g a.i./10a
  Scirpus juncoides herbicidal efficacy (growth inhibition level): 7 (7: 70% to less than 80%)
Scirpus juncoides; 5g a.i./10a
  Scirpus juncoides herbicidal efficacy (growth inhibition level): 8 (8: 80% to less than 90%)

## CC(C)=CCN(C(=O)C(F)(F)F)c1c(C#N)cnn1-c1nn2c(c1Cl)CCCC2 [Compound 25]
Monochoria vaginalis; 1g a.i./10a
  Monochoria vaginalis herbicidal efficacy (growth inhibition level): 9 (9: 90% to less than 100%)
Monochoria vaginalis; 5g a.i./10a
  Monochoria vaginalis herbicidal efficacy (growth inhibition level): 9 (9: 90% to less than 100%)
Echinochloa crus-galli; 1g a.i./10a
  Echinochloa crus-galli herbicidal efficacy (growth inhibition level): 9 (9: 90% to less than 100%)
Echinochloa crus-galli; 5g a.i./10a
  Echinochloa crus-galli herbicidal efficacy (growth inhibition level): 10 (10: 100%)
Scirpus juncoides; 1g a.i./10a
  Scirpus juncoides herbicidal efficacy (growth inhibition level): 8 (8: 80% to less than 90%)
Scirpus juncoides; 5g a.i./10a
  Scirpus juncoides herbicidal efficacy (growth inhibition level): 8 (8: 80% to less than 90%)

## CC(C)=CCNc1c([N+](=O)[O-])cnn1-c1nn2c(c1Cl)CCCC2 [Compound 35]
Monochoria vaginalis; 1g a.i./10a
  Monochoria vaginalis herbicidal efficacy (growth inhibition level): 9 (9: 90% to less than 100%)
Monochoria vaginalis; 5g a.i./10a
  Monochoria vaginalis herbicidal efficacy (growth inhibition level): 10 (10: 100%)
Echinochloa crus-galli; 1g a.i./10a
  Echinochloa crus-galli herbicidal efficacy (growth inhibition level): 9 (9: 90% to less than 100%)
Echinochloa crus-galli; 5g a.i./10a
  Echinochloa crus-galli herbicidal efficacy (growth inhibition level): 9 (9: 90% to less than 100%)
Scirpus juncoides; 1g a.i./10a
  Scirpus juncoides herbicidal efficacy (growth inhibition level): 8 (8: 80% to less than 90%)
Scirpus juncoides; 5g a.i./10a
  Scirpus juncoides herbicidal efficacy (growth inhibition level): 10 (10: 100%)

## CC=CCN(C(=O)C(F)(F)F)c1c([N+](=O)[O-])cnn1-c1nn2c(c1Cl)CCCC2 (mixture of isomers) [Compound 40]
Monochoria vaginalis; 1g a.i./10a
  Monochoria vaginalis herbicidal efficacy (growth inhibition level): 8 (8: 80% to less than 90%)
Monochoria vaginalis; 5g a.i./10a
  Monochoria vaginalis herbicidal efficacy (growth inhibition level): 8 (8: 80% to less than 90%)
Echinochloa crus-galli; 1g a.i./10a
  Echinochloa crus-galli herbicidal efficacy (growth inhibition level): 8 (8: 80% to less than 90%)
Echinochloa crus-galli; 5g a.i./10a
  Echinochloa crus-galli herbicidal efficacy (growth inhibition level): 9 (9: 90% to less than 100%)
Scirpus juncoides; 1g a.i./10a
  Scirpus juncoides herbicidal efficacy (growth inhibition level): 7 (7: 70% to less than 80%)
Scirpus juncoides; 5g a.i./10a
  Scirpus juncoides herbicidal efficacy (growth inhibition level): 8 (8: 80% to less than 90%)

## CC(C)=CCNc1c(C#N)cnn1-c1nn2c(c1Br)CCCC2 [Compound 48]
Monochoria vaginalis; 1g a.i./10a
  Monochoria vaginalis herbicidal efficacy (growth inhibition level): 8 (8: 80% to less than 90%)
Monochoria vaginalis; 5g a.i./10a
  Monochoria vaginalis herbicidal efficacy (growth inhibition level): 10 (10: 100%)
Echinochloa crus-galli; 1g a.i./10a
  Echinochloa crus-galli herbicidal efficacy (growth inhibition level): 8 (8: 80% to less than 90%)
Echinochloa crus-galli; 5g a.i./10a
  Echinochloa crus-galli herbicidal efficacy (growth inhibition level): 9 (9: 90% to less than 100%)
Scirpus juncoides; 1g a.i./10a
  Scirpus juncoides herbicidal efficacy (growth inhibition level): 7 (7: 70% to less than 80%)
Scirpus juncoides; 5g a.i./10a
  Scirpus juncoides herbicidal efficacy (growth inhibition level): 8 (8: 80% to less than 90%)

## CC=CCCN(C(=O)C(F)(F)F)c1c(C#N)cnn1-c1nn2c(c1Cl)CCCC2 (mixture of isomers) [Compound 26]
Monochoria vaginalis; 1g a.i./10a
  Monochoria vaginalis herbicidal efficacy (growth inhibition level): 8 (8: 80% to less than 90%)
Monochoria vaginalis; 5g a.i./10a
  Monochoria vaginalis herbicidal efficacy (growth inhibition level): 9 (9: 90% to less than 100%)
Echinochloa crus-galli; 1g a.i./10a
  Echinochloa crus-galli herbicidal efficacy (growth inhibition level): 9 (9: 90% to less than 100%)
Echinochloa crus-galli; 5g a.i./10a
  Echinochloa crus-galli herbicidal efficacy (growth inhibition level): 9 (9: 90% to less than 100%)
Scirpus juncoides; 1g a.i./10a
  Scirpus juncoides herbicidal efficacy (growth inhibition level): 7 (7: 70% to less than 80%)
Scirpus juncoides; 5g a.i./10a
  Scirpus juncoides herbicidal efficacy (growth inhibition level): 8 (8: 80% to less than 90%)

## C=CCN(C(=O)C(F)(F)C(F)(F)F)c1c(C#N)cnn1-c1nn2c(c1Cl)CCCC2 [Compound 28]
Monochoria vaginalis; 1g a.i./10a
  Monochoria vaginalis herbicidal efficacy (growth inhibition level): 8 (8: 80% to less than 90%)
Monochoria vaginalis; 5g a.i./10a
  Monochoria vaginalis herbicidal efficacy (growth inhibition level): 10 (10: 100%)
Echinochloa crus-galli; 1g a.i./10a
  Echinochloa crus-galli herbicidal efficacy (growth inhibition level): 9 (9: 90% to less than 100%)
Echinochloa crus-galli; 5g a.i./10a
  Echinochloa crus-galli herbicidal efficacy (growth inhibition level): 9 (9: 90% to less than 100%)
Scirpus juncoides; 1g a.i./10a
  Scirpus juncoides herbicidal efficacy (growth inhibition level): 8 (8: 80% to less than 90%)
Scirpus juncoides; 5g a.i./10a
  Scirpus juncoides herbicidal efficacy (growth inhibition level): 9 (9: 90% to less than 100%)

## CC=CCNc1c([N+](=O)[O-])cnn1-c1nn2c(c1Cl)CCCC2 (mixture of isomers) [Compound 34]
Monochoria vaginalis; 1g a.i./10a
  Monochoria vaginalis herbicidal efficacy (growth inhibition level): 9 (9: 90% to less than 100%)
Monochoria vaginalis; 5g a.i./10a
  Monochoria vaginalis herbicidal efficacy (growth inhibition level): 9 (9: 90% to less than 100%)
Echinochloa crus-galli; 1g a.i./10a
  Echinochloa crus-galli herbicidal efficacy (growth inhibition level): 9 (9: 90% to less than 100%)
Echinochloa crus-galli; 5g a.i./10a
  Echinochloa crus-galli herbicidal efficacy (growth inhibition level): 9 (9: 90% to less than 100%)
Scirpus juncoides; 1g a.i./10a
  Scirpus juncoides herbicidal efficacy (growth inhibition level): 8 (8: 80% to less than 90%)
Scirpus juncoides; 5g a.i./10a
  Scirpus juncoides herbicidal efficacy (growth inhibition level): 8 (8: 80% to less than 90%)

## N#Cc1cnn(-c2nn3c(c2Cl)CCCC3)c1NCCC(F)=C(F)F [Compound 6]
Monochoria vaginalis; 1g a.i./10a
  Monochoria vaginalis herbicidal efficacy (growth inhibition level): 7 (7: 70% to less than 80%)
Monochoria vaginalis; 5g a.i./10a
  Monochoria vaginalis herbicidal efficacy (growth inhibition level): 8 (8: 80% to less than 90%)
Echinochloa crus-galli; 1g a.i./10a
  Echinochloa crus-galli herbicidal efficacy (growth inhibition level): 9 (9: 90% to less than 100%)
Echinochloa crus-galli; 5g a.i./10a
  Echinochloa crus-galli herbicidal efficacy (growth inhibition level): 9 (9: 90% to less than 100%)
Scirpus juncoides; 1g a.i./10a
  Scirpus juncoides herbicidal efficacy (growth inhibition level): 8 (8: 80% to less than 90%)
Scirpus juncoides; 5g a.i./10a
  Scirpus juncoides herbicidal efficacy (growth inhibition level): 8 (8: 80% to less than 90%)

## C=CCCNc1c(C#N)cnn1-c1nn2c(c1Cl)CCCC2 [Compound 5]
Monochoria vaginalis; 1g a.i./10a
  Monochoria vaginalis herbicidal efficacy (growth inhibition level): 9 (9: 90% to less than 100%)
Monochoria vaginalis; 5g a.i./10a
  Monochoria vaginalis herbicidal efficacy (growth inhibition level): 9 (9: 90% to less than 100%)
Echinochloa crus-galli; 1g a.i./10a
  Echinochloa crus-galli herbicidal efficacy (growth inhibition level): 9 (9: 90% to less than 100%)
Echinochloa crus-galli; 5g a.i./10a
  Echinochloa crus-galli herbicidal efficacy (growth inhibition level): 10 (10: 100%)
Scirpus juncoides; 1g a.i./10a
  Scirpus juncoides herbicidal efficacy (growth inhibition level): 7 (7: 70% to less than 80%)
Scirpus juncoides; 5g a.i./10a
  Scirpus juncoides herbicidal efficacy (growth inhibition level): 8 (8: 80% to less than 90%)

## C=CCCN(C(=O)C(F)(F)F)c1c(C#N)cnn1-c1nn2c(c1Cl)CCCC2 [Compound 18]
Monochoria vaginalis; 1g a.i./10a
  Monochoria vaginalis herbicidal efficacy (growth inhibition level): 8 (8: 80% to less than 90%)
Monochoria vaginalis; 5g a.i./10a
  Monochoria vaginalis herbicidal efficacy (growth inhibition level): 9 (9: 90% to less than 100%)
Echinochloa crus-galli; 1g a.i./10a
  Echinochloa crus-galli herbicidal efficacy (growth inhibition level): 9 (9: 90% to less than 100%)
Echinochloa crus-galli; 5g a.i./10a
  Echinochloa crus-galli herbicidal efficacy (growth inhibition level): 9 (9: 90% to less than 100%)
Scirpus juncoides; 1g a.i./10a
  Scirpus juncoides herbicidal efficacy (growth inhibition level): 7 (7: 70% to less than 80%)
Scirpus juncoides; 5g a.i./10a
  Scirpus juncoides herbicidal efficacy (growth inhibition level): 8 (8: 80% to less than 90%)

## CC(C)=CCNc1c(C#N)cnn1-c1nn2c(c1Cl)CCCC2 [Compound 13]
Monochoria vaginalis; 1g a.i./10a
  Monochoria vaginalis herbicidal efficacy (growth inhibition level): 8 (8: 80% to less than 90%)
Monochoria vaginalis; 5g a.i./10a
  Monochoria vaginalis herbicidal efficacy (growth inhibition level): 9 (9: 90% to less than 100%)
Echinochloa crus-galli; 1g a.i./10a
  Echinochloa crus-galli herbicidal efficacy (growth inhibition level): 9 (9: 90% to less than 100%)
Echinochloa crus-galli; 5g a.i./10a
  Echinochloa crus-galli herbicidal efficacy (growth inhibition level): 10 (10: 100%)
Scirpus juncoides; 1g a.i./10a
  Scirpus juncoides herbicidal efficacy (growth inhibition level): 8 (8: 80% to less than 90%)
Scirpus juncoides; 5g a.i./10a
  Scirpus juncoides herbicidal efficacy (growth inhibition level): 8 (8: 80% to less than 90%)
